Experimental data from the supplement of paper PMC10307832.

How the values were obtained:
Assay in all cases: relative viability (nuclei count vs DMSO), 5 days (fraction); higher = more cells survive
[1] = compound: C1COCCN1C2=NC(=NC3=C2OC4=C3C=CC=N4)C5=CC(=CC=C5)NC(=O)C6=CN=C(C=C6)N + C[C@@H](Oc1cc(-c2cnn(C3CCNCC3)c2)cnc1N)c1c(Cl)ccc(F)c1Cl [Crizotinib] (partner 1 µM)
Procedure, shortened: (§1)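 One day after seeding in 1536-well plates, lung cancer cell lines were dosed by pin tool. Dosing was either single-drug or a fixed anchor-drug dose plus five library-drug doses (not always all listed) in √10 steps. After 5 days, nuclei were stained in one fix-and-stain step and counted on 4× images, and relative viability is the nuclei count of treated wells over that of vehicle wells, given as the median of duplicate plates.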

[2] = compound: C1COCCN1C2=NC(=NC3=C2OC4=C3C=CC=N4)C5=CC(=CC=C5)NC(=O)C6=CN=C(C=C6)N + O=C(CCCCCCC(=O)Nc1ccccc1)NO [Vorinostat] (partner 1 µM)
Procedure, shortened: as §1

Entinostat + Navitoclax = compound: Nc1ccccc1NC(=O)c1ccc(CNC(=O)OCc2cccnc2)cc1 [Entinostat] + CC1(C)CCC(c2ccc(Cl)cc2)=C(CN2CCN(c3ccc(C(=O)NS(=O)(=O)c4ccc(N[C@H](CCN5CCOCC5)CSc5ccccc5)c(S(=O)(=O)C(F)(F)F)c4)cc3)CC2)C1 [Navitoclax] (partner 0.5 µM)
Procedure, shortened: as §1

Entinostat + Olaparib = compound: Nc1ccccc1NC(=O)c1ccc(CNC(=O)OCc2cccnc2)cc1 [Entinostat] + O=C(c1cc(Cc2n[nH]c(=O)c3ccccc23)ccc1F)N1CCN(C(=O)C2CC2)CC1 [Olaparib] (partner 8 µM)
Procedure, shortened: as §1

NCI-H2347
relative viability ([1]; first compound 0.02 µM): 0.603
relative viability ([1]; first compound 0.06325 µM): 0.678
relative viability ([1]; first compound 0.2 µM): 0.744
relative viability ([1]; first compound 0.6325 µM): 0.759
relative viability ([1]; first compound 2 µM): 0.649
relative viability ([2]; first compound 0.02 µM): 0.582
relative viability ([2]; first compound 0.06325 µM): 0.494
relative viability ([2]; first compound 0.2 µM): 0.645
relative viability ([2]; first compound 0.6325 µM): 0.528
relative viability ([2]; first compound 2 µM): 0.559
relative viability (Entinostat + Navitoclax; first compound 0.02 µM): 0.839
relative viability (Entinostat + Navitoclax; first compound 0.06325 µM): 0.746
relative viability (Entinostat + Navitoclax; first compound 0.2 µM): 0.514
relative viability (Entinostat + Navitoclax; first compound 0.6325 µM): 0.19
relative viability (Entinostat + Navitoclax; first compound 2 µM): 0.227
relative viability (Entinostat + Olaparib; first compound 0.02 µM): 0.636
relative viability (Entinostat + Olaparib; first compound 0.06325 µM): 0.537
relative viability (Entinostat + Olaparib; first compound 0.2 µM): 0.455
relative viability (Entinostat + Olaparib; first compound 0.6325 µM): 0.35
relative viability (Entinostat + Olaparib; first compound 2 µM): 0.32

NCI-H1666
relative viability ([1]; first compound 0.02 µM): 0.743
relative viability ([1]; first compound 0.06325 µM): 1.08
relative viability ([1]; first compound 0.2 µM): 0.82
relative viability ([1]; first compound 0.6325 µM): 1.03
relative viability ([1]; first compound 2 µM): 0.619
relative viability ([2]; first compound 0.02 µM): 1.07
relative viability ([2]; first compound 0.06325 µM): 1.09
relative viability ([2]; first compound 0.2 µM): 0.966
relative viability ([2]; first compound 0.6325 µM): 0.736
relative viability ([2]; first compound 2 µM): 0.865
relative viability (Entinostat + Navitoclax; first compound 0.02 µM): 1.13
relative viability (Entinostat + Navitoclax; first compound 0.06325 µM): 1.09
relative viability (Entinostat + Navitoclax; first compound 0.2 µM): 0.861
relative viability (Entinostat + Navitoclax; first compound 0.6325 µM): 0.463
relative viability (Entinostat + Navitoclax; first compound 2 µM): 0.277
relative viability (Entinostat + Olaparib; first compound 0.02 µM): 0.81
relative viability (Entinostat + Olaparib; first compound 0.06325 µM): 0.759
relative viability (Entinostat + Olaparib; first compound 0.2 µM): 0.723
relative viability (Entinostat + Olaparib; first compound 0.6325 µM): 0.669
relative viability (Entinostat + Olaparib; first compound 2 µM): 0.539

NCI-H1993
relative viability ([1]; first compound 0.02 µM): 0.821
relative viability ([1]; first compound 0.06325 µM): 0.856
relative viability ([1]; first compound 0.2 µM): 0.805
relative viability ([1]; first compound 0.6325 µM): 0.899
relative viability ([1]; first compound 2 µM): 0.789
relative viability ([2]; first compound 0.02 µM): 0.831
relative viability ([2]; first compound 0.06325 µM): 0.701
relative viability ([2]; first compound 0.2 µM): 0.634
relative viability ([2]; first compound 0.6325 µM): 0.723
relative viability ([2]; first compound 2 µM): 0.563
relative viability (Entinostat + Navitoclax; first compound 0.02 µM): 0.869
relative viability (Entinostat + Navitoclax; first compound 0.06325 µM): 0.857
relative viability (Entinostat + Navitoclax; first compound 0.2 µM): 0.789
relative viability (Entinostat + Navitoclax; first compound 0.6325 µM): 0.841
relative viability (Entinostat + Navitoclax; first compound 2 µM): 0.73
relative viability (Entinostat + Olaparib; first compound 0.02 µM): 1.25
relative viability (Entinostat + Olaparib; first compound 0.06325 µM): 1.11
relative viability (Entinostat + Olaparib; first compound 0.2 µM): 1.01
relative viability (Entinostat + Olaparib; first compound 0.6325 µM): 0.892
relative viability (Entinostat + Olaparib; first compound 2 µM): 0.375

COR-L23
relative viability ([1]; first compound 0.02 µM): 0.68
relative viability ([1]; first compound 0.06325 µM): 0.748
relative viability ([1]; first compound 0.2 µM): 0.716
relative viability ([1]; first compound 0.6325 µM): 0.809
relative viability ([1]; first compound 2 µM): 0.43
relative viability ([2]; first compound 0.02 µM): 0.517
relative viability ([2]; first compound 0.06325 µM): 0.525
relative viability ([2]; first compound 0.2 µM): 0.458
relative viability ([2]; first compound 0.6325 µM): 0.403
relative viability ([2]; first compound 2 µM): 0.381
relative viability (Entinostat + Navitoclax; first compound 0.02 µM): 0.86
relative viability (Entinostat + Navitoclax; first compound 0.06325 µM): 0.8
relative viability (Entinostat + Navitoclax; first compound 0.2 µM): 0.865
relative viability (Entinostat + Navitoclax; first compound 0.6325 µM): 0.441
relative viability (Entinostat + Navitoclax; first compound 2 µM): 0.123
relative viability (Entinostat + Olaparib; first compound 0.02 µM): 0.323
relative viability (Entinostat + Olaparib; first compound 0.06325 µM): 0.311
relative viability (Entinostat + Olaparib; first compound 0.2 µM): 0.347
relative viability (Entinostat + Olaparib; first compound 0.6325 µM): 0.184
relative viability (Entinostat + Olaparib; first compound 2 µM): 0.127

HCC-44
relative viability ([1]; first compound 0.02 µM): 0.879
relative viability ([1]; first compound 0.06325 µM): 0.927
relative viability ([1]; first compound 0.2 µM): 0.835
relative viability ([1]; first compound 0.6325 µM): 0.887
relative viability ([1]; first compound 2 µM): 0.624
relative viability ([2]; first compound 0.02 µM): 1.03
relative viability ([2]; first compound 0.06325 µM): 1.15
relative viability ([2]; first compound 0.2 µM): 1.2
relative viability ([2]; first compound 0.6325 µM): 1.22
relative viability ([2]; first compound 2 µM): 1.02
relative viability (Entinostat + Navitoclax; first compound 0.02 µM): 1.02
relative viability (Entinostat + Navitoclax; first compound 0.06325 µM): 0.826
relative viability (Entinostat + Navitoclax; first compound 0.2 µM): 0.418
relative viability (Entinostat + Navitoclax; first compound 0.6325 µM): 0.403
relative viability (Entinostat + Navitoclax; first compound 2 µM): 0.235
relative viability (Entinostat + Olaparib; first compound 0.02 µM): 0.957
relative viability (Entinostat + Olaparib; first compound 0.06325 µM): 0.906
relative viability (Entinostat + Olaparib; first compound 0.2 µM): 0.93
relative viability (Entinostat + Olaparib; first compound 0.6325 µM): 0.875
relative viability (Entinostat + Olaparib; first compound 2 µM): 0.7

LU99A
relative viability ([1]; first compound 0.02 µM): 0.602
relative viability ([1]; first compound 0.06325 µM): 0.65
relative viability ([1]; first compound 0.2 µM): 0.477
relative viability ([1]; first compound 0.6325 µM): 0.49
relative viability ([1]; first compound 2 µM): 0.327
relative viability ([2]; first compound 0.02 µM): 0.435
relative viability ([2]; first compound 0.06325 µM): 0.546
relative viability ([2]; first compound 0.2 µM): 0.365
relative viability ([2]; first compound 0.6325 µM): 0.418
relative viability ([2]; first compound 2 µM): 0.309
relative viability (Entinostat + Navitoclax; first compound 0.02 µM): 0.752
relative viability (Entinostat + Navitoclax; first compound 0.06325 µM): 0.916
relative viability (Entinostat + Navitoclax; first compound 0.2 µM): 0.75
relative viability (Entinostat + Navitoclax; first compound 0.6325 µM): 0.567
relative viability (Entinostat + Navitoclax; first compound 2 µM): 0.421
relative viability (Entinostat + Olaparib; first compound 0.02 µM): 0.236
relative viability (Entinostat + Olaparib; first compound 0.06325 µM): 0.264
relative viability (Entinostat + Olaparib; first compound 0.2 µM): 0.274
relative viability (Entinostat + Olaparib; first compound 0.6325 µM): 0.198
relative viability (Entinostat + Olaparib; first compound 2 µM): 0.164

NCI-H460
relative viability ([1]; first compound 0.02 µM): 1.16
relative viability ([1]; first compound 0.06325 µM): 1.03
relative viability ([1]; first compound 0.2 µM): 0.913
relative viability ([1]; first compound 0.6325 µM): 0.927
relative viability ([1]; first compound 2 µM): 0.144
relative viability ([2]; first compound 0.02 µM): 1.51
relative viability ([2]; first compound 0.06325 µM): 0.788
relative viability ([2]; first compound 0.2 µM): 0.907
relative viability ([2]; first compound 0.6325 µM): 0.559
relative viability ([2]; first compound 2 µM): 0.221
relative viability (Entinostat + Navitoclax; first compound 0.02 µM): 1.08
relative viability (Entinostat + Navitoclax; first compound 0.06325 µM): 0.973
relative viability (Entinostat + Navitoclax; first compound 0.2 µM): 1.04
relative viability (Entinostat + Navitoclax; first compound 0.6325 µM): 0.0885
relative viability (Entinostat + Navitoclax; first compound 2 µM): 0.0187
relative viability (Entinostat + Olaparib; first compound 0.02 µM): 0.37
relative viability (Entinostat + Olaparib; first compound 0.06325 µM): 0.328
relative viability (Entinostat + Olaparib; first compound 0.2 µM): 0.137
relative viability (Entinostat + Olaparib; first compound 0.6325 µM): 0.0676
relative viability (Entinostat + Olaparib; first compound 2 µM): 0.0406

NCI-H1975
relative viability ([1]; first compound 0.02 µM): 0.993
relative viability ([1]; first compound 0.06325 µM): 1.15
relative viability ([1]; first compound 0.2 µM): 0.929
relative viability ([1]; first compound 0.6325 µM): 1.07
relative viability ([1]; first compound 2 µM): 0.418
relative viability ([2]; first compound 0.02 µM): 0.675
relative viability ([2]; first compound 0.06325 µM): 0.689
relative viability ([2]; first compound 0.2 µM): 0.631
relative viability ([2]; first compound 0.6325 µM): 0.624
relative viability ([2]; first compound 2 µM): 0.389
relative viability (Entinostat + Navitoclax; first compound 0.02 µM): 0.906
relative viability (Entinostat + Navitoclax; first compound 0.06325 µM): 0.782
relative viability (Entinostat + Navitoclax; first compound 0.2 µM): 0.751
relative viability (Entinostat + Navitoclax; first compound 0.6325 µM): 0.289
relative viability (Entinostat + Navitoclax; first compound 2 µM): 0.188
relative viability (Entinostat + Olaparib; first compound 0.02 µM): 0.73
relative viability (Entinostat + Olaparib; first compound 0.06325 µM): 0.637
relative viability (Entinostat + Olaparib; first compound 0.2 µM): 0.484
relative viability (Entinostat + Olaparib; first compound 0.6325 µM): 0.324
relative viability (Entinostat + Olaparib; first compound 2 µM): 0.211
